According to patent US20170348343A1, “METHODS OF TREATING HEPATITIS E VIRAL INFECTION” (Gilead Pharmasset LLC, priority 2016, published 2017):

Tested on: HEV
Test: HEV RNA test in a human subject with HEV infection (case, Example 1)
Assay type: in vivo
Procedure: A human subject was identified as having AIDS, Kaposi's sarcoma, non-Hodgkin's lymphoma, compensated cirrhosis, and a history of alcoholism. An HEV RNA test of the subject was conducted, and the result was positive, at approximately 20,000 IU/mL. The subject was started on ribavirin monotherapy, wherein ribavirin was administered to the subject at 800 mg once per day. […] The subject was then started on a treatment wherein ribavirin administration was continued at 800 mg per day and sofosbuvir was also administered at 400 mg per day. After four weeks of such treatment, the subject's HEV RNA levels were below the lower limit of detection of about 25 IU/mL.

Compound | HEV status (ribavirin monotherapy 800 mg once per day for over one year, human subject, baseline HEV RNA approximately 20,000 IU/mL) | HEV RNA levels (sofosbuvir 400 mg per day together with continued ribavirin 800 mg per day, after four weeks, same subject, lower limit of detection about 25 IU/mL)
NC(=O)c1ncn([C@@H]2O[C@H](CO)[C@@H](O)[C@H]2O)n1 [ribavirin] | remained HEV-positive | –
CC(C)OC(=O)[C@H](C)N[P@](=O)(OC[C@H]1O[C@@H](n2ccc(=O)[nH]c2=O)[C@](C)(F)[C@@H]1O)Oc1ccccc1 [sofosbuvir, (S)-isopropyl 2-(((S)-(((2R,3R,4R,5R)-5-(2,4-dioxo-3,4-dihydropyrimidin-1(2H)-yl)-4-fluoro-3-hydroxy-4-methyltetrahydrofuran-2-yl)methoxy)(phenoxy)phosphoryl)amino)propanoate] | – | < 25 IU/mL
